Assay results from EP0982027A1, “Taxoid derivatives for treating abnormal cell proliferation of the brain” (RHONE-POULENC RORER S.A., priority 1998, dated 2000).
Like-named read-outs stand apart in the source and are kept apart here.

Assay: in vivo
Parameters: species or system female C3H/HeN mice
Details: mouse; for concentration at 6 h: 6h after dose; for concentration at 8 h: 8h after dose; for concentration at 14 h: 14h after dose; for concentration at 24 h: 24 h after dose; for concentration at 48 h: 48 h after dose; for concentration at 5 min: 5 min after dose; for concentration at 0.25 h: 15 min after dose; for concentration at 0.5 h: 0.5h after dose; for concentration at 0.75 h: 0.75h after dose; for concentration at 1 h: 1h after dose; for Vd: read-out: Vdss; for AUC(0-inf): mean level data
Description: Groups of female C3H/HeN mice received the product by the intravenous route as a bolus at a dose level of 40 mg.kg^-1 equivalent to 120 mg.m^-2. Blood and brain samples were obtained from all dosed animals sacrificed at intervals up to 72 hours post dose. Brain and corresponding plasma samples have been assayed for product Ia content by an LC-MS/MS assay.
• Formulation: 2.25 mg.ml^-1 solution containing 5 % Polysorbate 80, 5 % ethanol and 90 % of an aqueous 5 % glucose solution. […]
• Sampling : Blood by cardiac puncture and liver and brain by dissection after CO2 sacrifice • Sample Times : at 2, 5, 15, 30, 45 minutes, 1, 2, 4, 6, 8, 14, 24, 48 and 72 hours post dose.
Whole blood was collected into heparinised tubes and corresponding plasma samples were obtained by centrifugation and frozen immediately at -20°C. Tissues were blotted, weighed and frozen immediately at -20°C. All samples were dispatched frozen for analysis. Upon receipt, samples were stored frozen at approximately -18°C pending analysis.
• Detection: LC-MS/MS (Sciex API III plus) in turbo-ionspray mode
The following MS conditions were applied:
Column: 75 x 4.6 mm Supelcosil ABZ plus (3 µm). Mobile phase: Acetonitrile/methanol/ammonium acetate (10mM); 40/25/35 v/v/v. Flow rate : 1 ml.min^-1. Temperature : Ambient. Extraction : Plasma: Add 100 µl of acetonitrile to sample (50 µl). Vortex, centrifuge, remove supernatant, add 100 µl of mobile phase and inject 150 µl. Brain : Add 100 µl of acetonitrile to homogenised sample (100 mg of a 1:1 w/w brain with water homogenate) and vortex. Add 1ml of diethyl ether, vortex, centrifuge, remove organic layer and dry under N2. Reconstitute in 200 µl of mobile phase and inject 150 µl. Calibration standards: Plasma : Nine at concentrations of 5, 10, 20, 50, 100, 200, 300, 400 & 500 ng.ml^-1 (product Ia). Prepared by adding suitable aliquots of the product (concentrations = 0.1, 1 or 10 µg.ml^-1) in ethanol to 0.5 ml aliquots of mouse plasma. Each sample was vortexed following drug addition; a 50 µl aliquot was then removed for assay. Brain : Eleven at concentrations of 10, 20, 30, 100, 200, 300, 400, 500, 1000, 2500 & 5000 ng.g^-1 in homogenised mouse brain (1:1 w/w brain with water). Prepared by adding suitable aliquots of the product (concentrations = 1, 10 or 100 µg.ml^-1) in ethanol to 0.5, 1, 3 or 4 g of homogenised mouse brain. Each sample was vortexed following drug addition and a 100 mg aliquot was then removed for assay. Retention times: Drug; product Ia: ∼2.3 min. Extraction efficiency : Plasma : ca.58 % at 200 ng.ml^-1. Brain : ca.41 % at 500 ng.g^-1 and 39 % at 1000 ng.g^-1.
A biexponential equation was fitted to the profiles using an interactive linear least-square algorithm as part of the SIPHAR package.
AUC0-∞: Area under the plasma or brain concentration versus time curve from t=0 (start of infusion) to infinity. Initial T1/2: Initial (distribution) half-life. Terminal T1/2: Terminal (elimination) half-life (should be regarded as an estimate only being dependent on sampling frequency in the terminal phase and assay sensitivity). ClT: Total plasma clearance. Vdss: Volume of distribution at steady state. n.a.: Not applicable.

[1] = brain, iv, 40 mg/kg, 40 mg.kg^-1 i.v., MEAN, read-out: Brain product Ic concentration
[2] = brain, iv, 40 mg/kg, 40 mg.kg^-1 i.v., individual animals IV1-IV4, read-out: Brain product Ic concentration
[3] = plasma, iv, 40 mg/kg, 40 mg.kg^-1 i.v., MEAN, read-out: Plasma product Ic concentration
[4] = plasma, iv, 40 mg/kg, 40 mg.kg^-1 i.v., individual animals IV1-IV4, read-out: Plasma product Ic concentration
[5] = plasma, iv, 40 mg/kg, Plasma+, calculated from values ≥ l.o.d. of 4 ng.ml^-1, 40 mg.kg^-1 i.v.

CO[C@H]1C(=O)[C@]2(C)[C@@H](OC)C[C@H]3OC[C@@]3(OC(C)=O)[C@H]2[C@H](OC(=O)c2ccccc2)[C@]2(O)C[C@H](OC(=O)[C@H](O)[C@@H](NC(=O)OC(C)(C)C)c3ccccc3)C(C)=C1C2(C)C [product Ia, 4α-acetoxy-2α-benzoyloxy-5β,20-epoxy-1β-hydroxy-7β,10β-dimethoxy-9-oxo-11-taxen-13α-yl (2R,3S)-3 tert-butoxycarbonylamino-2-hydroxy-3-phenylpropionate]
concentration at 4 h (brain, iv, 40 mg/kg, 40 mg.kg^-1 i.v., 4h after dose, individual animals IV1-IV4, read-out: Brain product Ic concentration): 7910 ng/g
concentration at 6 h [1]: 6430 ng/g
concentration at 8 h [1]: 8250 ng/g
concentration at 8 h [2]: 9070 ng/g
concentration at 14 h [1]: 9130 ng/g
concentration at 14 h [2]: 9620 ng/g
concentration at 24 h [1]: 8670 ng/g
concentration at 24 h [2]: 7900 ng/g
concentration at 48 h [1]: 7720 ng/g
concentration at 48 h [2]: 6660 ng/g
concentration at 72 h (brain, iv, 40 mg/kg, 40 mg.kg^-1 i.v., 72 h after dose, MEAN, read-out: Brain product Ic concentration): 5250 ng/g
concentration at 72 h (brain, iv, 40 mg/kg, 40 mg.kg^-1 i.v., 72 h after dose, individual animals IV1-IV4, read-out: Brain product Ic concentration): 5900 ng/g
concentration at 2 min (brain, iv, 40 mg/kg, 40 mg.kg^-1 i.v., at 2 mins, read-out: brain level at the first sampling time): 7900 ng/g
concentration at 72 h (brain, iv, 40 mg/kg, 40 mg.kg^-1 i.v., at 72h, read-out: brain concentration at the last sampling time): 5300 ng/g
concentration at 2 min (plasma, iv, 40 mg/kg, 40 mg.kg^-1 i.v., 2 min after dose, MEAN, read-out: Plasma product Ic concentration): 46900 ng/mL
concentration at 2 min (plasma, iv, 40 mg/kg, 40 mg.kg^-1 i.v., 2 min after dose, individual animals IV1-IV4, read-out: Plasma product Ic concentration): 53000 ng/mL
concentration at 5 min [3]: 34300 ng/mL
concentration at 5 min [4]: 36700 ng/mL
concentration at 0.25 h [3]: 20500 ng/mL
concentration at 0.25 h [4]: 20500 ng/mL
concentration at 0.5 h [3]: 10400 ng/mL
concentration at 0.5 h [4]: 10800 ng/mL
concentration at 0.75 h [3]: 9090 ng/mL
concentration at 0.75 h [4]: 7130 ng/mL
concentration at 1 h [3]: 6550 ng/mL
concentration at 1 h [4]: 6020 ng/mL
concentration at 4 h (plasma, iv, 40 mg/kg, 40 mg.kg^-1 i.v., 4h after dose, MEAN, read-out: Plasma product Ic concentration): 962 ng/mL
concentration at 4 h (plasma, iv, 40 mg/kg, 40 mg.kg^-1 i.v., 4h after dose, individual animals IV1-IV4, read-out: Plasma product Ic concentration): 1070 ng/mL
concentration at 6 h [3]: 362 ng/mL
concentration at 6 h [4]: 449 ng/mL
concentration at 8 h [3]: 188 ng/mL
concentration at 8 h [4]: 204 ng/mL
concentration at 14 h [3]: 56 ng/mL
concentration at 14 h [4]: 65 ng/mL
concentration at 24 h [3]: 16 ng/mL
concentration at 48 h [3]: 2 ng/mL
concentration at 4 h (plasma, iv, 40 mg/kg, 40 mg.kg^-1 i.v., within 4h, read-out: plasma level): < 1000 ng/mL
half-life (plasma, iv, 40 mg/kg, Plasma#, calculated from values ≥ b.l.q. of 20 ng.ml^-1, 40 mg.kg^-1 i.v., read-out: Initial T1/2 (converted)): 12 min
half-life (plasma, iv, 40 mg/kg, Plasma#, calculated from values ≥ b.l.q. of 20 ng.ml^-1, 40 mg.kg^-1 i.v., read-out: Terminal T1/2 (converted)): 120 min
Vd (plasma, iv, 40 mg/kg, Plasma#, calculated from values ≥ b.l.q. of 20 ng.ml^-1, 40 mg.kg^-1 i.v.): 2.4 L/kg
AUC(0-inf) [5]: 30000 ng·h/mL
half-life (plasma, iv, 40 mg/kg, Plasma+, calculated from values ≥ l.o.d. of 4 ng.ml^-1, 40 mg.kg^-1 i.v., read-out: Initial T1/2 (converted)): 42 min
half-life (plasma, iv, 40 mg/kg, Plasma+, calculated from values ≥ l.o.d. of 4 ng.ml^-1, 40 mg.kg^-1 i.v., read-out: Terminal T1/2 (converted)): 372 min
Vd [5]: 1.9 L/kg
AUC(0-inf) (plasma, iv, 40 mg/kg, calculated from values ≥ b.l.q. of 20 ng.ml^-1, 40 mg.kg^-1 i.v.): 29800 ng·h/mL
half-life (plasma, iv, 40 mg/kg, plasma, 40 mg.kg^-1 i.v., read-out: initial half-life): ≤ 42 min
levels in the brain relative to those in the plasma (on the basis of AUC0-∞ values, 40 mg.kg^-1 i.v.): about twenty times
concentration at 24 h (plasma, iv, 40 mg.kg^-1 i.v., individual animals IV1-IV4, values flagged blq (below limit of accurate quantification, 20 ng.ml^-1), read-out: Plasma product Ic concentration): 18 ng/mL
concentration at 48 h (plasma, iv, 40 mg.kg^-1 i.v., individual animals IV1-IV4, blq = below 20 ng.ml^-1, n.d. = not detected (≤ l.o.d. of 4 ng.ml^-1), read-out: Plasma product Ic concentration): 4 ng/mL
Cmax at 2 min (plasma, iv, 40 mg.kg^-1 i.v., peak at 2 minutes, read-out: plasma peak level (mean)): 46900 ng/mL
penetration of the blood brain barrier (post-i.v. administration): readily penetrate the blood brain barrier
